According to patent US8415469B2, “Compounds and methods for kinase modulation, and indications therefor” (Plexxikon Inc., priority 2005, dated 2013):

How the values were obtained:
Format in all cases: biochemical
FGFR1 = target: T1, FGFR1 (Homo sapiens, UniProt P11362, C488A/C584S); experiment: AlphaScreen kinase assay, FGFR1; details: read-out: IC50, activity toward kinase FGFR
T1 construct: P1351.pET N6 BI-PTP FGFR A458-E765-X C488A, C584S; made in house; host or cells: E. coli (PTP1B co-expressed)

Flt1 = target: T2, Flt1 (Homo sapiens, UniProt P17948); experiment: AlphaScreen kinase assay, Flt1; details: read-out: IC50, activity toward kinase Flt1
T2 construct: P1826.pETN6 BI-PTP FLT1 M799-D1165-X WT; His6 (N); made in house; host or cells: E. coli (PTP1B co-expressed)
T2 sequence (P17948 with tags, fused parts or gaps): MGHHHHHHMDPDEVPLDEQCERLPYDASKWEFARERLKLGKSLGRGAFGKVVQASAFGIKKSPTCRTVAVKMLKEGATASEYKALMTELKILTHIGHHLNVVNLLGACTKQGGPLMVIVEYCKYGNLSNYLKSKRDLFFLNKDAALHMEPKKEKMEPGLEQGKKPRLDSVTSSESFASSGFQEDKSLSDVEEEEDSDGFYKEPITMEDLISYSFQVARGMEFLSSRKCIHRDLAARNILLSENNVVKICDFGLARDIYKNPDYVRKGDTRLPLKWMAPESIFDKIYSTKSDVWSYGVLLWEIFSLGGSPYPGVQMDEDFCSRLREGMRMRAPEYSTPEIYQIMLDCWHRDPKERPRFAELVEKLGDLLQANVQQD

Jnk3 = target: T3, Jnk3 (Homo sapiens, UniProt P53779); experiment: AlphaScreen kinase assay, Jnk3; details: read-out: IC50, activity toward kinase Jnk3
T3 construct: purchased Upstate Biotechnology

Kit = target: T4, Kit (Homo sapiens, UniProt P10721); experiment: AlphaScreen kinase assay, Kit; details: read-out: IC50, activity toward kinase Kit
T4 construct: P1332.N6 BI PTP KIT M552-K948-X COD; His6 (N); made in house; host or cells: E. coli (PTP1B co-expressed)

Ret = target: T5, Ret (Homo sapiens, UniProt P07949); experiment: AlphaScreen kinase assay, Ret; details: read-out: IC50, activity toward kinase Ret
T5 construct: P1378.pET-SF BI-PTP RET H661-R1012 HIS; made in house
T5 sequence (P07949 with tags, fused parts or gaps): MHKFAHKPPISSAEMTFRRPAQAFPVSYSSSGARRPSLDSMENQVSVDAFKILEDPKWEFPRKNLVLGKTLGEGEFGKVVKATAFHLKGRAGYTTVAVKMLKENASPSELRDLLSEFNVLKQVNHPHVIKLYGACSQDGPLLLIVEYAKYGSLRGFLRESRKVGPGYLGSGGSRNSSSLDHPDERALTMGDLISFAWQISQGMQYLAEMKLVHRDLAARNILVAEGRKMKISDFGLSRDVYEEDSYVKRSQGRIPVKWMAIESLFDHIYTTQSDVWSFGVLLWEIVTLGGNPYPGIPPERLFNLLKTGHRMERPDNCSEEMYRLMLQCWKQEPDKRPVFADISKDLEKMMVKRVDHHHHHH

Jnk1 = target: T6, Jnk1 (Homo sapiens, UniProt P45983); experiment: AlphaScreen kinase assay, Jnk1; details: read-out: IC50, activity toward kinase Jnk1
T6 construct: purchased Upstate Biotechnology

Kdr = target: T7, Kdr (Homo sapiens, UniProt P35968); experiment: Z'-Lyte FRET kinase assay (Invitrogen), Kdr; details: read-out: IC50, activity toward kinase Kdr
T7 construct: purchased Invitrogen (assay run by Invitrogen)

B-Raf = target: T8, B-Raf (Homo sapiens, UniProt P15056); experiment: AlphaScreen kinase assay, B-Raf; details: read-out: IC50, activity toward kinase B-Raf
T8 construct: purchased Upstate Biotechnology

B-Raf V600E = target: T9, B-Raf V600E (Homo sapiens, UniProt P15056, V600E); experiment: AlphaScreen kinase assay, B-Raf V600E; details: read-out: IC50, activity toward kinase B-Raf V600E
T9 construct: P4254. pFastBacBD-CDC37 BRAF D437-K722-X, V600E; His6 with pFastBac HT leader (TEV site) (N); made in house; host or cells: Sf9 (baculovirus; chaperone CDC37 co-expressed)

Fms = target: T10, Fms (Homo sapiens, UniProt P07333); experiment: AlphaScreen kinase assay, Fms; details: read-out: IC50, activity toward kinase Fms
T10 construct: purchased Upstate Biotechnology

c-Raf-1 = target: T11, c-Raf-1 (Homo sapiens, UniProt P04049); experiment: AlphaScreen kinase assay, c-Raf-1; details: read-out: IC50, activity toward kinase c-Raf-1
T11 construct: purchased Upstate Biotechnology

Measured: IC50

T10 sequence (P07333 20-972): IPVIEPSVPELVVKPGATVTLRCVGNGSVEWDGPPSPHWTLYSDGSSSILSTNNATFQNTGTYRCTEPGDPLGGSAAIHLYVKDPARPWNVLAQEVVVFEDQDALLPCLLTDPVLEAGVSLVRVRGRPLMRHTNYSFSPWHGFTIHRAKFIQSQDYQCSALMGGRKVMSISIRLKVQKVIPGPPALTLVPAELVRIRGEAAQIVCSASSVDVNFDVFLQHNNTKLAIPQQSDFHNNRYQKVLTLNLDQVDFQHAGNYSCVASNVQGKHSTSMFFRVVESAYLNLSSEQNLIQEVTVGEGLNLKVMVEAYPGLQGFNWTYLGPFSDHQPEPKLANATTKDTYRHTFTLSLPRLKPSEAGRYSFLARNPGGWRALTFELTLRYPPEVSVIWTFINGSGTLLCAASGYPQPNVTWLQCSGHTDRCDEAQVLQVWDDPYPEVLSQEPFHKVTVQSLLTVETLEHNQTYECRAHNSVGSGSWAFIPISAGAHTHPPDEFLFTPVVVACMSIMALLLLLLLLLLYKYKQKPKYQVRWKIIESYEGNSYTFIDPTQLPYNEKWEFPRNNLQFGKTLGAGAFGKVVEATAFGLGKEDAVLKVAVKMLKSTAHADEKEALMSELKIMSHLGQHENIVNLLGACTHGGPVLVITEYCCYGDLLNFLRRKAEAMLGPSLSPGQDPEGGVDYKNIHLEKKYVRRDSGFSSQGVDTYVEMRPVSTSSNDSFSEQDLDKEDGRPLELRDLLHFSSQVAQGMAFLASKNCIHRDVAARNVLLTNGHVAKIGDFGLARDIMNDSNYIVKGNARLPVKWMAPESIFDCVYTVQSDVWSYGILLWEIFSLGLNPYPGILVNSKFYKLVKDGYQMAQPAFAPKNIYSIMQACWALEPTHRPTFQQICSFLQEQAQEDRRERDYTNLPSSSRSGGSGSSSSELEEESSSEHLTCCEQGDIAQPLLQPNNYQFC
T9 sequence (P15056 with tags, fused parts or gaps V600E): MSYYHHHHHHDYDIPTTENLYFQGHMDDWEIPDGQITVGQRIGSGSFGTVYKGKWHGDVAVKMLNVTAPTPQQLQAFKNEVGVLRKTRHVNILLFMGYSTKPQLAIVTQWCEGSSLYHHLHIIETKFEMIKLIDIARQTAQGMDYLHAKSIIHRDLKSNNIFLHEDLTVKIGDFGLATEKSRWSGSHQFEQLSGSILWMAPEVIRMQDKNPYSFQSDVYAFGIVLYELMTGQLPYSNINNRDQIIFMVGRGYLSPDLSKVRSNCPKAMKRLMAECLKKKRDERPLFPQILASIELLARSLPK
T4 sequence (P10721 with tags, fused parts or gaps): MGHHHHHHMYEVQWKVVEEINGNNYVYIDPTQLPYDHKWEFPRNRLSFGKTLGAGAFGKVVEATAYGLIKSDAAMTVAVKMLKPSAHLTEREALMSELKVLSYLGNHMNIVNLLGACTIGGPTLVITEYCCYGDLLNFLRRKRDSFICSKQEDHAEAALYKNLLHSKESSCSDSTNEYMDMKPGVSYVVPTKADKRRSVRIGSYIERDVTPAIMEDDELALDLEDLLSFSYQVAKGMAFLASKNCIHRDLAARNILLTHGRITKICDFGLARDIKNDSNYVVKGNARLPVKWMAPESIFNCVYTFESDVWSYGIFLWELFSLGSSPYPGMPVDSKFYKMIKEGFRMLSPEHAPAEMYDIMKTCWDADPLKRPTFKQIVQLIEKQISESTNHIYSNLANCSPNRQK
T8 sequence (P15056 whole entry): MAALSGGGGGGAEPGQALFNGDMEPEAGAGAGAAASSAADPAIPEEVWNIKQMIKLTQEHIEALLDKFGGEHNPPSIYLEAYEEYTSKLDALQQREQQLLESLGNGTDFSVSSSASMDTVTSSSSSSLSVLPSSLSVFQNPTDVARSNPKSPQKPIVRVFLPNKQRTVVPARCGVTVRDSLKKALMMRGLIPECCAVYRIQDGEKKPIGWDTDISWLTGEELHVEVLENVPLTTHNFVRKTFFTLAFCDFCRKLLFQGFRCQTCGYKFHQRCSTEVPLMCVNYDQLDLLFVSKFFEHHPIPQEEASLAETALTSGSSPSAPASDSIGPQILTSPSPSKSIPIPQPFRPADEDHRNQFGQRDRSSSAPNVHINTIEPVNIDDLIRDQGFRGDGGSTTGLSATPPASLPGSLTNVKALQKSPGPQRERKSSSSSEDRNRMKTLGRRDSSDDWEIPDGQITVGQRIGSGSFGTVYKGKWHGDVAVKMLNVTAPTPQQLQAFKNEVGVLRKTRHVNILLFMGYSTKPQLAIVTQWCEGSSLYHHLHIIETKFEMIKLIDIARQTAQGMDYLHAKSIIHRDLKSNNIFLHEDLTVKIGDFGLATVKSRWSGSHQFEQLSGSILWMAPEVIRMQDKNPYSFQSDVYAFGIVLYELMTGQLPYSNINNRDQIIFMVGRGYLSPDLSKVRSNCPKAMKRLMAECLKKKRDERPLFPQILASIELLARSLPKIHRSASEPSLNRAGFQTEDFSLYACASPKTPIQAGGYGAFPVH
T6 sequence (P45983 whole entry): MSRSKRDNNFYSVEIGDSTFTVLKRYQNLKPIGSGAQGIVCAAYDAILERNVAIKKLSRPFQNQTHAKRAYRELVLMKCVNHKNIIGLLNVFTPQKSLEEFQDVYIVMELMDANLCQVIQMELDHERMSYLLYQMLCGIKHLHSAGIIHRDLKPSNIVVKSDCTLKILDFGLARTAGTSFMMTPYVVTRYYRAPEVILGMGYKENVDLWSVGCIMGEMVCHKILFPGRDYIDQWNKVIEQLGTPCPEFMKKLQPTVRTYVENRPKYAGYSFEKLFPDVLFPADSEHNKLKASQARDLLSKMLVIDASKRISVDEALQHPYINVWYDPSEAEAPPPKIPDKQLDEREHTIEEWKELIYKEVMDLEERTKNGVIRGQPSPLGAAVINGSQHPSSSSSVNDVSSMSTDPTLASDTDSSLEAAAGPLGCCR
T3 sequence (P53779 whole entry): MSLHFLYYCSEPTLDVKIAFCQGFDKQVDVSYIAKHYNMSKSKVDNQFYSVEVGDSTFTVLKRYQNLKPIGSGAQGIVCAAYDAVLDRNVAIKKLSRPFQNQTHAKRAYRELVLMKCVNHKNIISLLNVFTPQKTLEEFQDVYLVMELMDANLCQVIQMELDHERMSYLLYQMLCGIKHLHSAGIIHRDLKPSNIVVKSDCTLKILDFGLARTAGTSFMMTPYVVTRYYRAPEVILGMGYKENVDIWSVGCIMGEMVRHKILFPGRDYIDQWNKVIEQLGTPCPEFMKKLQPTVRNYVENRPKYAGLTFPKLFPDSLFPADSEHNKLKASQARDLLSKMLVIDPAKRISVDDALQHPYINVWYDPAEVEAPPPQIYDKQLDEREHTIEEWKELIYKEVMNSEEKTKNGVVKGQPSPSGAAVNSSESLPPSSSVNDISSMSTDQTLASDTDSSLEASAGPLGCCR
T1 sequence (P11362 458-765 C488A/C584S): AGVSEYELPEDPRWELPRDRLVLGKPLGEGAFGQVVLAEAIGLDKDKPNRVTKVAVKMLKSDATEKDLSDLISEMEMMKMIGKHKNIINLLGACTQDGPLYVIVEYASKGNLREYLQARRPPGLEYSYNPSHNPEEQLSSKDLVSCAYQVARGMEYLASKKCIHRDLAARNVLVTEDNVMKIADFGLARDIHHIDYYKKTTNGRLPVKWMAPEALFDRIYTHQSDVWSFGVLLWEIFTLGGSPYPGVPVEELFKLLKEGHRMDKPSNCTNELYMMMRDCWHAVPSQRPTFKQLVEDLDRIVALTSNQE
T7 sequence (P35968 20-1356): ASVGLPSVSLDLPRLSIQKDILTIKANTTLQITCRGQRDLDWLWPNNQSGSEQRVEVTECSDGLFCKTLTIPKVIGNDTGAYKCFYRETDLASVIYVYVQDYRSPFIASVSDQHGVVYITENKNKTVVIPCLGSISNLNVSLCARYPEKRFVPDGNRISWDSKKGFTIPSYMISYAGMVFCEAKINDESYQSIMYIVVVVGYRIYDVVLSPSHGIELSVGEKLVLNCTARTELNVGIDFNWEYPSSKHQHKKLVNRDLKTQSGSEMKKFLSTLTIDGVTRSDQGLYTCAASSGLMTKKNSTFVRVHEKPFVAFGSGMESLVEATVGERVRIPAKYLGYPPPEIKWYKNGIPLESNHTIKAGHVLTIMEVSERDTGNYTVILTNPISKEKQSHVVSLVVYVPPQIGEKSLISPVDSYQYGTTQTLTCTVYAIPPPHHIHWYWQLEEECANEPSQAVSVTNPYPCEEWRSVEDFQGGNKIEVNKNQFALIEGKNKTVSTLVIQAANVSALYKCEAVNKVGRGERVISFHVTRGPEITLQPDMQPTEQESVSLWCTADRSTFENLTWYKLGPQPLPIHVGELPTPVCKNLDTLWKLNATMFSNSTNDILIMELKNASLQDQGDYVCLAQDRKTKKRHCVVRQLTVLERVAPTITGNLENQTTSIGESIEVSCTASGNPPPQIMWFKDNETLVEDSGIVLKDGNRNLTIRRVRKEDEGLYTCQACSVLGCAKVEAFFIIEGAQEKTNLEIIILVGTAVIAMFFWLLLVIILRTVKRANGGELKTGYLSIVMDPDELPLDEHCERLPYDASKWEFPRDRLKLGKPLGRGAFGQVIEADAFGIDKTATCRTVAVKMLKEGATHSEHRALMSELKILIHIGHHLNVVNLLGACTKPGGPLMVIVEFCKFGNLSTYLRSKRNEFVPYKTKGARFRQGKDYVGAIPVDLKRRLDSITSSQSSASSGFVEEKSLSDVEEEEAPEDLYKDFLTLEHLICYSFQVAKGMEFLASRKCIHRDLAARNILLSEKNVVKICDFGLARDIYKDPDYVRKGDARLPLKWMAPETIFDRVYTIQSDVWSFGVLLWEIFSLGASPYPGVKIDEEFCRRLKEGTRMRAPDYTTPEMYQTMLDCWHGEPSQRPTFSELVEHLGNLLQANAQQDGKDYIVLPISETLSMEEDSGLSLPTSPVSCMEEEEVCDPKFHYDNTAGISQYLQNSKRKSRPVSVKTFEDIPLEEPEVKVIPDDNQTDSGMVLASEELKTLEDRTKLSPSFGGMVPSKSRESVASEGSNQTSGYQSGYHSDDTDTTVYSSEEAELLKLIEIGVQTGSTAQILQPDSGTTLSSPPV

COc1cccc(C(=O)c2c[nH]c3ncc(-c4ccccc4)cc23)c1 [Compound P-0371]
≤ 10 µM: FGFR1 | Flt1 | Jnk3 | Kit | Ret

c1csc(-c2ccnc3[nH]ccc23)c1 [Compound P-0431]
≤ 10 µM: Jnk1

Cc1cc(C(=O)c2c[nH]c3ncc(-c4ccsc4)cc23)no1 [Compound P-0640]
≤ 10 µM: FGFR1 | Flt1 | Jnk3 | Kdr | Kit | Ret

NC(=O)c1ccc(-c2cnc3[nH]ccc3c2)cc1 [Compound P-0659]
≤ 10 µM: Jnk3 | Kit | Ret

Oc1ccc(Cc2c[nH]c3ncc(-c4ccsc4)cc23)cc1O [Compound P-0683]
not listed: Jnk1 | Fms | c-Raf-1
≤ 10 µM: all other assays above

Oc1cccc(C(O)c2c[nH]c3ncc(-c4cccs4)cc23)c1 (stereo not shown) [Compound P-0710]
≤ 10 µM: B-Raf V600E | FGFR1 | Jnk3 | Ret

O=C(c1ccccc1O)c1c[nH]c2ncc(-c3cccs3)cc12 [Compound P-0757]
≤ 10 µM: Flt1 | Jnk3 | Kit | Ret

COc1cccc(Nc2c[nH]c3ncccc23)c1 [Compound P-1490, (3-Methoxy-phenyl)-(1H-pyrrolo[2,3-b]pyridin-3-yl)-amine]
≤ 10 µM: Fms | Jnk3 | Kit

c1ccc(COc2ccccc2Nc2c[nH]c3ncccc23)cc1 [Compound P-1505, (2-Benzyloxy-phenyl)-(1H-pyrrolo[2,3-b]pyridin-3-yl)-amine]
≤ 10 µM: B-Raf V600E | Flt1 | Fms | Jnk3 | Kit

c1cncc(-c2cnc3[nH]cc(Cc4ccc5c(c4)OCCO5)c3c2)c1 [Compound P-1529, 3-(2,3-Dihydro-benzo[1,4]dioxin-6-ylmethyl)-5-pyridin-3-yl-1H-pyrrolo[2,3-b]pyridine]
not listed: Ret | Jnk1 | Kdr | c-Raf-1
≤ 10 µM: all other assays above

CCCS(=O)(=O)Nc1cccc(C(=O)c2c[nH]c3ncc(-c4cccnc4)cc23)c1C [Compound P-1631]
≤ 10 µM: B-Raf | B-Raf V600E | Fms | Jnk1

CCCCNC(=O)Nc1ccc(F)c(C(=O)c2c[nH]c3ncc(Br)cc23)c1 [Compound P-1637, 1-[3-(5-Bromo-1H-pyrrolo[2,3-b]pyridine-3-carbonyl)-4-fluoro-phenyl]-3-butyl-urea]
≤ 10 µM: B-Raf | B-Raf V600E | Fms | Jnk1

CCCS(=O)(=O)Nc1cccc(C(=O)c2c[nH]c3ncc(-c4cccnc4)cc23)c1 [Compound P-1638]
≤ 10 µM: B-Raf | B-Raf V600E | Fms | Jnk1

CCCS(=O)(=O)Nc1cccc(C(=O)c2c[nH]c3ncc(-c4ccc(F)cc4)cc23)c1 [Compound P-1639]
≤ 10 µM: B-Raf | B-Raf V600E | Fms | Jnk1

CCCCNC(=O)Nc1ccc(F)c(C(=O)c2c[nH]c3ncc(-c4cccc(OC(F)(F)F)c4)cc23)c1 [Compound P-1660, 1-Butyl-3-{4-fluoro-3-[5-(3-trifluoromethoxy-phenyl)-1H-pyrrolo[2,3-b]pyridine-3-carbonyl]-phenyl}-urea]
≤ 10 µM: B-Raf | B-Raf V600E | Fms | Jnk1

O=C(Nc1ccccc1)Nc1cccc(C(=O)c2c[nH]c3ncccc23)c1 [Compound P-1703, 1-Phenyl-3-[3-(1H-pyrrolo[2,3-b]pyridine-3-carbonyl)-phenyl]-urea]
≤ 10 µM: B-Raf | B-Raf V600E | Fms | Jnk3 | Kit

O=C(Nc1ccc(F)cc1)Nc1cccc(C(=O)c2c[nH]c3ncccc23)c1 [Compound P-1704, 1-(4-Fluoro-phenyl)-3-[3-(1H-pyrrolo[2,3-b]pyridine-3-carbonyl)-phenyl]-urea]
≤ 10 µM: B-Raf | B-Raf V600E | Fms | Jnk3 | Kit

O=C(Nc1cccc(C(=O)c2c[nH]c3ncccc23)c1)Nc1ccc(C(F)(F)F)cc1Cl [Compound P-1713, 1-(2-Chloro-4-trifluoromethyl-phenyl)-3-[3-(1H-pyrrolo[2,3-b]pyridine-3-carbonyl)-phenyl]-urea]
≤ 10 µM: B-Raf | B-Raf V600E | c-Raf-1 | Fms | Jnk3 | Kit

O=C(Nc1cccc(F)c1)Nc1cccc(C(=O)c2c[nH]c3ncccc23)c1 [Compound P-1716, 1-(3-Fluoro-phenyl)-3-[3-(1H-pyrrolo[2,3-b]pyridine-3-carbonyl)-phenyl]-urea]
≤ 10 µM: B-Raf | B-Raf V600E | Fms | Jnk3

COc1ccc(NC(=O)Nc2cccc(C(=O)c3c[nH]c4ncc(-c5cccnc5)cc34)c2)cc1OC [Compound P-1725, 1-(3,4-Dimethoxy-phenyl)-3-[3-(5-pyridin-3-yl-1H-pyrrolo[2,3-b]pyridine-3-carbonyl)-phenyl]-urea]
≤ 10 µM: B-Raf | B-Raf V600E | Fms | Jnk1

Cc1ccc(S(=O)(=O)Nc2ccc(F)c(C(=O)c3c[nH]c4ncc(Cl)cc34)c2F)cc1 [Compound P-1842, N-[3-(5-Chloro-1H-pyrrolo[2,3-b]pyridine-3-carbonyl)-2,4-difluoro-phenyl]-4-methyl-benzenesulfonamide]
≤ 10 µM: B-Raf | B-Raf V600E | Jnk1

OC(c1ccc(OCc2nc3ccccc3[nH]2)c(F)c1)c1c[nH]c2ncccc12 (stereo not shown) [Compound P-1898]
≤ 10 µM: Jnk1
